Patent EP2392327A1, “Use of orlistat for the anti-parasitic treatment of a parasitic disease” (Universitätsmedizin der Johannes Gutenberg-Universität Mainz, priority 2010, dated 2011)
Like-named read-outs stand apart in the source and are kept apart here.

Legend:
HCT-8 cells = test: Cytotoxicity in MTS/PMS assay on HCT-8 cells; format: cell-based; conditions: HCT-8 cultures, 48 hrs
Protocol: Cells were passaged in maintenance medium at 37°C in a 6% CO2/94% humidified air incubator.
Cytotoxicity of Orlistat was tested in an MTS/PMS assay (Hommer et al., 2003). Orlistat stock solution and DMSO solvent (control) were diluted in culture medium and serial dilutions were applied to HCT-8 cultures for 48 hrs.

Cryptosporidium parvum [1] = test: In vitro inhibition of the development of Cryptosporidium parvum in HCT-8 cells (cell culture-based enzyme-immune assay)
Protocol: In a cell culture-based enzyme-immune assay increasing concentrations of Orlistat (1 - 15 µM) diluted in culture medium were tested for the inhibition of the development of Cryptosporidium parvum. The parasites were allowed to develop in HCT-8 cells for 48 hrs. The optical readings were converted into parasite growth relative to mean of the controls [%]. […] Orlistat (# 04139, Sigma, Deisenhofen, Germany) was dissolved in DMSO at 10 mM (stock solution). […] Cells were passaged in maintenance medium at 37°C in a 6% CO2/94% humidified air incubator. HCT-8 cells were seeded in 96-well culture plates and infected with Cryptosporidium parvum oocysts (IOWA strain) as described (Hommer et al., 2003). At 2 hrs post infection (p.i.) non-invaded parasites were removed by washing. Orlistat diluted in culture medium or medium alone (negative control) were added. After a total of 48 hrs p.i. culture plates were washed with PBS and fixed with methanol for 15 min. Intracellular stages of Cryptosporidium parvum were detected by an enzyme-immune assay using a monoclonal antibody (McDonald et al., 1995) as described previously (Hommer et al., 2003). Experiments were performed in six-fold replica. Optical density (OD) readings were corrected by the OD of non-infected HCT-8 cells. The means of the infected controls without Orlistat were taken as 100% growth rate. […]

Cryptosporidium parvum [2] = conditions: 1.5x10^6 parasites, 5.0 mg Orlistat per gram dry matter
From the text: Error bars represent standard deviations. […] Error bars represent standard deviations.

[3] = cited from earlier work
[4] = within the physiological pH range; cited from earlier work

Structure (SMILES): CCCCCCCCCCC[C@@H](C[C@@H]1OC(=O)[C@H]1CCCCCC)OC(=O)[C@H](CC(C)C)NC=O [Orlistat]
- cytotoxic effect on HCT-8 cells detected at concentrations (HCT-8 cells): > 20 µM
- inhibition at 15 µM (Cryptosporidium parvum [1]; Cryptosporidium parvum, 15 µM, 48 hrs p.i., HCT-8 host cells, compared to the infected but untreated controls, read-out: inhibition rate): > 90%
- reduction of parasite development in the HCT-8 host cells (Cryptosporidium parvum [1]; all Orlistat concentrations (1 - 15 µM), p < 0.0002): concentration dependent, statistically significant reduction
- reduction of total parasite excretion by a factor (Cryptosporidium parvum [2]; interferon-gamma deficient mice, p < 0.0006): 125
- reduction of total parasite excretion by a factor (Cryptosporidium parvum [2]; interleukin-12 deficient mice, p < 0.008): over 80
- solubility in chloroform ([3]; chloroform): freely soluble
- solubility in methanol and ethanol ([3]; methanol and ethanol): very soluble
- solubility in water ([3]; water): practically insoluble
- pKa [4]: no pKa within the physiological pH range
